Experimental data as given in patent publication US20200157195A1, “14-3-3 Antagonists for the Prevention and Treatment of Arthritis” (THE UNIVERSITY OF BRITISH COLUMBIA, priority 2007, published 2020).
The star is where a group is joined. Biotin = O=C1N[C@H]2[C@H](CS[C@H]2CCCCC(=O)*)N1

Assays:
[1] = test system: MMP-1 expression in dermal fibroblasts induced by extracellular 14-3-3 protein; test: MMP-1 expression in dermal fibroblasts treated with KLCCM after R-18 pull-down of 14-3-3 proteins; format: cell-based
Description: The KLCCM used in these experiments was taken from day 28 of cell transdifferentiation due to their high capacity of inducing MMP-1 expression in dermal fibroblasts (data not shown). […] As negative control, dermal fibroblasts treated with medium that was not conditioned (DMEM (49%), KSFM (49%) plus 2% FBS) were used (“Pull-down”−).

[2] = test system: association of 14-3-3 proteins with Raf-1; conditions: Wang et al. 1999; cited from earlier work

Substance	reduction of MMP-1 expression ([1]; pre-treatment of KLCCM with biotinylated R-18 and avidin sepharose (pull-down), dermal fibroblasts, MMP-1/β-actin densitometry) [%]	inhibition of induction of MMP-1 expression by extracellular 14-3-3 protein (in words) ([1]; FIG. 5 legend)	blocking the association of 14-3-3 proteins with Raf-1 [2]
Biotin-PHCVPRDLSWLDLEANMCLP-OH (cysteine pairing not given here) [biotinylated R-18]	68.8		
R-18: small peptide 14-3-3 antagonist (Wang et al. 1999) capable of blocking the association of 14-3-3 proteins with Raf-1 (Biotin-PHCVPRDLSWLDLEANMCLP-OH; not fully specified; cysteine pairing not given here)		inhibits induction of MMP-1 expression	capable of blocking the association of 14-3-3 proteins with Raf-1
